pIC50: −log10 of the molar value. Values belong to the compound of their own block, whether it stands above or below them. Calls of active or inactive are those of the source. The rule behind the calls is not given here. Peptide text beside a SMILES is read from it.
Tests used:
[1] = target: T1, Chaperone SurA (Escherichia coli (strain K12)) (UniProt P0ABZ6); conditions: up to 3 µM
T1 sequence (whole entry): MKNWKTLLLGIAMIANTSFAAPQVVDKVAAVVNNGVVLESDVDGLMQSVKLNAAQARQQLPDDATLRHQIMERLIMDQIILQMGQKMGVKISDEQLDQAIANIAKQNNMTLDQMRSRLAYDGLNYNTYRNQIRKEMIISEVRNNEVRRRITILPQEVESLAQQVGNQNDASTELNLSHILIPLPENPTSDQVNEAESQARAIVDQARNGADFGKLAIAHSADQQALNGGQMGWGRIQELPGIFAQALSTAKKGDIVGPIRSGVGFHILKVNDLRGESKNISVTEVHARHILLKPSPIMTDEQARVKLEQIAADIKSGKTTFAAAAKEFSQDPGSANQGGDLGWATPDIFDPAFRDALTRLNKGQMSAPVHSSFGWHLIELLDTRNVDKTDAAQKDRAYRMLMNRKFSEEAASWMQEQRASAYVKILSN
Description: Inhibition of rhodamine-WEYIPNV binding to Escherichia coli SurA up to 3 uM by fluorescence anisotropy

[2] = target: T1, Chaperone SurA (Escherichia coli (strain K12)); assay: Inhibition of rhodamine-WEYIPNV binding to Escherichia coli SurA up to 2 uM by fluorescence anisotropy
Chaperone SurA [3] = target: T2, Chaperone SurA (Escherichia coli (strain K12), UniProt P0ABZ6); assay: Inhibition of rhodamine-WEYIPNV binding to Escherichia coli SurA by fluorescence anisotropy
T2 sequence (P0ABZ6 whole entry): T1 sequence (whole entry)

[4] = target: T1, Chaperone SurA (Escherichia coli (strain K12)); assay: Inhibition of rhodamine-WEYIPNV binding to Escherichia coli SurA up to 2.5 uM by fluorescence anisotropy
Chaperone SurA [5] = target: T2, Chaperone SurA; assay: Inhibition of rhodamine-WEYIPNV binding to Escherichia coli SurA in presence of 0.01% Triton-X-100 by fluorescence anisotropy
[6] = Binding affinity to Rhodamine-WEYIPNV up to 3 uM by fluorescence anisotropy
[7] = target: T1, Chaperone SurA (Escherichia coli (strain K12)); assay: Binding affinity to Escherichia coli SurA at 5 nM by fluorescence anisotropy
[8] = target: T1, Chaperone SurA (Escherichia coli (strain K12)); assay: Inhibition of rhodamine-WEYIPNV binding to Escherichia coli SurA up to 1.5 uM by fluorescence anisotropy

Compound: CN1/C(=C\C=C2/CCC(/C=C/C3=[N+](C)c4ccccc4C3(C)C)=C2Cl)C(C)(C)c2ccccc21
- inhibition [2]: inactive

Compound: O=C(N[C@H](Cc1ccc2ccccc2n1)C(=O)O)OCC1c2ccccc2-c2ccccc21
- pIC50 (Chaperone SurA [5]): 4.43
- Activity [6]: inactive
- pIC50 (Chaperone SurA [3]): 4.24

Compound: O=C1OC2(c3ccc(O)cc3Oc3cc(O)ccc32)c2ccccc21
- Activity [7]: Active

Compound: O=C(N[C@@H](Cc1ccccc1)C(=O)O)OCC1c2ccccc2-c2ccccc21
- Activity [6]: inactive
- pIC50 (Chaperone SurA [3]): 3.82

Compound: CC[C@H](C)[C@H](NC(=O)OCC1c2ccccc2-c2ccccc21)C(=O)O
- inhibition [4]: inactive

Compound: c1cc(C2=N[C@H]3c4ccccc4C[C@H]3O2)nc(C2=N[C@H]3c4ccccc4C[C@H]3O2)c1
- inhibition [8]: inactive

Further lines, results first:

- inhibition [1]: inactive
Compound: H-KQAGNV-OH

- pIC50 (Chaperone SurA [3]): 5.58
Compound: CC[C@H](C)[C@H](NC(=O)[C@H](Cc1ccc(O)cc1)NC(=O)[C@H](CCC(=O)O)NC(=O)[C@@H](N)Cc1c[nH]c2ccccc12)C(=O)N1CCC[C@H]1C(=O)N[C@@H](CC(N)=O)C(=O)N[C@H](C(=O)O)C(C)C

- inhibition [2]: inactive
Compound: O=C(OCC1c2ccccc2-c2ccccc21)N1CCC[C@H]1C(=O)n1nnc2ccccc21

- inhibition [4]: inactive
Compound: O=C(N[C@@H](Cc1ccc(O)cc1)C(=O)O)OCC1c2ccccc2-c2ccccc21

- inhibition [4]: inactive
Compound: O=C(O)CCNC(=O)OCC1c2ccccc2-c2ccccc21

- inhibition [4]: inactive
Compound: C[C@H](NC(=O)OCC1c2ccccc2-c2ccccc21)C(=O)O

- inhibition [4]: inactive
Compound: O=C1OC2(c3ccc(O)cc3Oc3cc(O)ccc32)c2ccc(N3C(=O)C=CC3=O)cc21

- Activity [6]: inactive
- pIC50 (Chaperone SurA [3]): 4.63
Compound: O=C(N[C@@H](Cc1c[nH]c2ccccc12)C(=O)O)OCC1c2ccccc2-c2ccccc21

- inhibition [1]: inactive
Compound: N[C@@H](Cc1cnc[nH]1)C(=O)NCC(=O)NCC(=O)O (H-His-Gly-Gly-OH)
